Source: PubChem BioAssay (NCI)
Where “and” joins values, the source holds several entries; their conditions need not be identical. Equal entries are not always repeated.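 Each compound was tested at five concentrations against cells in 96-well plates for 48 hours. GI50 marks 50% less growth. Definition used: TGI = concentration required for complete inhibition of growth.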

How the values were obtained:
Assay in all cases: growth of human tumour cells (NCI), 48 h
T-47D breast = system: T-47D breast
SF-295 CNS = system: SF-295 CNS
HCT-116 colon = system: HCT-116 colon
HOP-92 NSCLC = system: HOP-92 NSCLC
786-0 renal = system: 786-0 renal
SK-OV-3 ovarian = system: SK-OV-3 ovarian
MOLT-4 leukemia = system: MOLT-4 leukemia
HCT-15 colon = system: HCT-15 colon
MALME-3M melanoma = system: MALME-3M melanoma
OVCAR-5 ovarian = system: OVCAR-5 ovarian

SMILES	TGI (T-47D breast)	TGI (SF-295 CNS)	TGI (HCT-116 colon)	TGI (HOP-92 NSCLC)	TGI (786-0 renal)	TGI (SK-OV-3 ovarian)	TGI (MOLT-4 leukemia)	TGI (HCT-15 colon)	TGI (MALME-3M melanoma)	TGI (OVCAR-5 ovarian)	GI50 (T-47D breast)	GI50 (SF-295 CNS)	GI50 (HCT-116 colon)	GI50 (HOP-92 NSCLC)	GI50 (786-0 renal)	GI50 (SK-OV-3 ovarian)	GI50 (MOLT-4 leukemia)	GI50 (HCT-15 colon)	GI50 (MALME-3M melanoma)	GI50 (OVCAR-5 ovarian)
O=C1CC(C(=O)O)Cc2c(Br)ccc(O)c21 (configuration not stated)	> 100 µM	> 100 µM	> 100 µM	> 100 µM	> 100 µM	> 100 µM	> 100 µM	> 100 µM	> 100 µM	> 100 µM	–	–	–	–	–	–	–	–	–	–
COc1ccc(N=N/C(=N\NC(=O)c2cc(Br)ccc2O)c2ccc(N(CCC#N)CCC#N)cc2OC)cc1	> 150 µg/mL	> 150 µg/mL	> 150 µg/mL	> 150 µg/mL	> 150 µg/mL	> 150 µg/mL	> 150 µg/mL	> 150 µg/mL	> 150 µg/mL	> 150 µg/mL	72.5 µg/mL	73.8 µg/mL	60.6 µg/mL	81.9 µg/mL	64.6 µg/mL	80.6 µg/mL	52 µg/mL	42 µg/mL	68.2 µg/mL	108 µg/mL
COc1cc(-c2cc(-c3cccs3)c(C#N)c(N3CCOCC3)n2)cc(OC)c1OC	> 85.3 µM	9.01 µM	> 100 µM	> 100 µM	7.94 µM	> 100 µM	> 100 µM	> 100 µM	> 100 µM	> 100 µM	3.32 µM	2.87 µM	4.14 µM	4.73 µM	1.82 µM	> 50.3 µM	4.09 µM	3.09 µM	3.66 µM	> 100 µM
CC(=O)OC1CC2C(C)(C)CCC[C@]2(C)C2=C1C(O)=C(C(C)C)C(=O)C2=O (some centres not stated)	4.98 µM	2.57 µM	1.99 µM	0.547 µM	2.91 µM	> 28.4 µM	> 30.8 µM	2.04 µM	1.59 µM	3.79 µM	0.739 µM	0.644 µM	0.499 µM	0.123 µM	0.813 µM	2.59 µM	1.4 µM	0.351 µM	0.341 µM	1.44 µM
COC(=O)CC1C2(C)C3=C(C)C(c4ccoc4)CC3OC2C2OC(=O)C3(C)C=CC(=O)C1(C)C23 (configuration not stated)	2.92 µM	13 µM	2.28 µM	5.52 µM	2.34 µM	14.9 µM	1.77 µM	3.15 µM	2.48 µM	5.44 µM	–	–	–	–	–	–	–	–	–	–
Clc1ccc(-c2nc3c(-c4ccccc4)nc(-c4ccccc4)cn3c2-c2ccc(Cl)cc2)cc1	> 100 µM	> 100 µM	> 100 µM	> 100 µM	> 100 µM	> 100 µM	> 100 µM	> 100 µM	> 100 µM	> 100 µM	> 100 µM	> 100 µM	> 100 µM	> 100 µM	> 100 µM	> 100 µM	> 100 µM	> 100 µM	> 100 µM	> 100 µM
O=C1Nc2ccc(O)cc2/C1=C\c1ccncc1	> 100 µM	77.8 µM	39.9 µM	> 100 µM	39 µM	> 100 µM	–	39 µM	–	57 µM	26.9 µM	25.9 µM	14.7 µM	31.2 µM	18.5 µM	58.9 µM	–	11 µM	–	27.2 µM
Cc1cncc(-c2nc(NCCc3c[nH]c4ccccc34)c3ncn(C(C)C)c3n2)c1	19.6 µM	10.8 µM	> 100 µM	15.5 µM	6.01 µM	35.7 µM	–	3.82 µM	5.71 µM	18.4 µM	4.98 µM	2.74 µM	3.88 µM	3.63 µM	2.01 µM	5.76 µM	–	1.67 µM	2.08 µM	3.45 µM
C=C1C(=O)O[C@@H]2C[C@@H]1CC[C@]1(C)O[C@H]1CC/C(C)=C/CC[C@@]2(C)O	58.7 µM	92.5 µM	25.8 µM	82.7 µM	31.2 µM	64 µM	28.1 µM	21.3 µM	–	96 µM	28.8 µM	29.7 µM	13.1 µM	29.1 µM	17 µM	25.5 µM	11.7 µM	8.51 µM	–	28.6 µM
O=C(Nc1ccn(C2CC(I)C(COC(c3ccccc3)(c3ccccc3)c3ccccc3)O2)c(=O)n1)c1ccccc1 (configuration not stated)	21.5 µM	21.5 µM	12.2 µM	13.2 µM	15.5 µM	21.5 µM	12.1 µM	21.5 µM	13.4 µM	> 21.5 µM	–	–	–	–	–	–	–	–	–	–
CN1CCN(Cc2ccc(NC(=O)c3cncc(C#Cc4c(N)ncc5c(F)cccc45)c3)cc2C(F)(F)F)CC1	6.38 µM	1.77 µM	1.2 µM	0.858 µM	1.62 µM	7.45 µM	1.5 µM	1.3 µM	1.23 µM	1.56 µM	1.94 µM	0.89 µM	0.517 µM	0.135 µM	0.873 µM	2.14 µM	0.57 µM	0.6 µM	0.443 µM	0.794 µM
COc1cc(N2CCN(C(C)C)CC2)ccc1Nc1nc(Nc2ccc(F)cc2C(=O)NCC(O)CO)c2cc[nH]c2n1 (configuration not stated)	> 25 µM	> 25 µM	> 25 µM	2.09 µM	> 25 µM	> 25 µM	> 25 µM	> 25 µM	> 25 µM	> 25 µM	7.52 µM	11.4 µM	1.69 µM	0.182 µM	> 23.3 µM	6.85 µM	8.68 µM	> 25 µM	4.65 µM	4.28 µM
Cc1ccc(/C=C(/C#N)n2nnc3ncccc32)cc1	15.8 µM	16.2 µM	11.1 µM	6.19 µM	16.4 µM	> 100 µM	19 µM	16.7 µM	26 µM	10.1 µM	1.92 µM	3.77 µM	2.2 µM	1.82 µM	2.99 µM	3.9 µM	3.41 µM	1.45 µM	1.76 µM	2.49 µM
Cc1ccc(S(=O)(=O)OCC(=O)Nc2ccc(C(=O)O)c(O)c2)cc1	133 µM	322 µM	69 µM	56.7 µM	96.7 µM	188 µM	87.9 µM	155 µM	115 µM	105 µM	43.2 µM	167 µM	20.5 µM	20 µM	30.5 µM	49.5 µM	16.5 µM	38.8 µM	32.3 µM	46.5 µM
O=c1c2ccccc2nc2n1CCc1c-2[nH]c2cc3c(cc12)OCO3	> 25 µM	> 25 µM	> 25 µM	–	7.69 µM	> 25 µM	> 25 µM	> 25 µM	–	> 25 µM	–	–	–	–	1.08 µM	–	–	–	–	–
CCC(CC)c1cc(N[C@H]2CC[C@H](N)C2)n2nccc2n1	> 100 µM	> 100 µM	> 100 µM	> 100 µM	> 100 µM	> 100 µM	> 100 µM	> 100 µM	6.24 µM	> 100 µM	0.759 µM	1.83 µM	0.402 µM	3.56 µM	2.22 µM	3.44 µM	1.36 µM	2.23 µM	2.07 µM	0.533 µM
CON=C1C[C@]2(C[C@@H]3C[C@@H](C/C=C(\C)C[C@@H](C)/C=C/C=C4\CO[C@@H]5[C@H](O)C(C)=C[C@@H](C(=O)O3)[C@]45O)O2)O[C@H](/C(C)=C/C(C)C)[C@H]1C	22.2 µM	22 µM	19 µM	11.8 µM	28.4 µM	28.5 µM	8.53 µM	30.9 µM	34.4 µM	37.4 µM	8.9 µM	9.16 µM	5.44 µM	1.99 µM	14.2 µM	15.2 µM	3.02 µM	14.9 µM	17.1 µM	18.1 µM
Cc1cc2c(C(=O)NCC#N)cccc2n1-c1nc2c(c(NCc3ccccc3)n1)CCCC2	1.53 µM	0.444 µM	0.637 µM	–	1.39 µM	2.78 µM	65.6 µM	0.404 µM	0.618 µM	1.94 µM	0.269 µM	0.191 µM	0.185 µM	–	0.382 µM	0.431 µM	0.313 µM	0.192 µM	0.201 µM	0.395 µM
CC(=O)NC(CS)C(=O)O (configuration not stated)	> 100 µM	> 100 µM and 57700 µM	> 100 µM and 52800 µM	–	> 100 µM and 58100 µM	> 100 µM	> 100 µM	> 100 µM and 47600 µM	> 100 µM and 54500 µM	> 100 µM and 66200 µM	> 100 µM	> 100 µM	> 100 µM	–	> 100 µM	> 100 µM	> 100 µM	> 100 µM	> 100 µM	> 100 µM
CN1C(=O)/C(=C2\S/C(=N\c3nnc(-c4ccccc4)o3)NC2=O)c2ccccc21	> 100 µM	> 100 µM	> 100 µM	> 100 µM	> 100 µM	> 100 µM	> 100 µM	> 100 µM	–	> 100 µM	> 100 µM	41.2 µM	92.4 µM	> 100 µM	> 100 µM	> 100 µM	> 100 µM	> 100 µM	–	> 100 µM
COC1=CC(c2ccc[nH]2)=N/C1=C\c1[nH]c(C)c(C(=O)Oc2ccccc2)c1C	1.8 µM	1.95 µM	1.17 µM	0.564 µM	1.64 µM	7.35 µM	–	–	–	1.99 µM	0.403 µM	0.329 µM	0.0427 µM	0.189 µM	0.313 µM	1.68 µM	–	–	–	0.389 µM
O=C(/C=C/c1ccco1)Nc1ncc(Cc2cccc(C(F)(F)F)c2)s1	> 92.2 µM	1.42 µM	> 32.8 µM	–	17.8 µM	7.45 µM	26 µM	> 34.3 µM	10.6 µM	11.8 µM	0.12 µM	0.0678 µM	0.0438 µM	–	0.163 µM	0.0626 µM	0.084 µM	0.0465 µM	0.125 µM	0.353 µM
CN(C)c1ccc(/C=C(\C#N)c2ccccc2)cc1	> 100 µM	0.99 µM and 5.97 µM	> 60.6 µM and > 100 µM and 29.6 µM	–	> 100 µM and 58.6 µM and 30.2 µM	> 100 µM	> 100 µM	> 100 µM	> 100 µM	> 100 µM	0.446 µM and 0.534 µM and 0.473 µM	0.225 µM and 0.421 µM	0.384 µM and 0.441 µM and 0.414 µM	–	0.56 µM and 0.763 µM and 0.437 µM	0.421 µM and 0.622 µM and 0.641 µM	0.372 µM and 0.439 µM and 0.545 µM	0.3 µM and 0.348 µM and 0.383 µM	2.58 µM and 18 µM	4.51 µM and 17.2 µM and 10.3 µM
COc1cccc(CCNC(=O)CC(c2ccccc2)(c2ccccc2)c2ccccc2)c1	> 100 µM	> 100 µM	26.7 µM	> 100 µM	> 100 µM	> 100 µM	> 100 µM	> 100 µM	–	> 100 µM	> 100 µM	4.36 µM	2.58 µM	> 100 µM	10.6 µM	> 100 µM	6.01 µM	> 100 µM	–	11.7 µM
[N-]=[N+]=NCCCn1c2c(c3ccc([N+](=O)[O-])cc3c1=O)C(=O)c1cc(I)ccc1-2	> 100 µM	> 100 µM	26.4 µM	–	16 µM	8.74 µM	5.08 µM	> 100 µM	77 µM	> 100 µM	3.87 µM	1.54 µM	2.15 µM	–	3.17 µM	2.11 µM	0.833 µM	18.5 µM	12.5 µM	41.2 µM
N.N.N.N.N.N#Cc1nn[n-]n1.[Cl-].[Co+3]	–	> 100 µM	> 100 µM	> 100 µM	> 100 µM	> 100 µM	> 100 µM	> 100 µM	> 100 µM	> 100 µM	–	> 100 µM	> 100 µM	> 100 µM	> 100 µM	> 100 µM	> 100 µM	> 100 µM	> 100 µM	> 100 µM
CCC(C)C(=O)O[C@H]1C(=O)O[C@@H]2C[C@H]3C(C)=CC(=O)[C@@H](O)[C@]3(C)[C@H]3[C@@H](O)[C@H](O)[C@@]4(C)OC[C@]32[C@@H]14 (some centres not stated)	< 0.0105 µM	–	< 0.01 µM	–	0.645 µM	0.58 µM	0.267 µM	0.071 µM	< 0.024 µM	0.0942 µM	–	–	–	–	–	–	–	–	–	–
